Results published in ChEMBL document CHEMBL1156984, “Synthesis and biological evaluation of piperazinyl heterocyclic antagonists of the gonadotropin releasing hormone (GnRH) receptor” (Bioorg Med Chem Lett, 2010).
Values after ≈ are worked out from the molar mass of the structure shown.

Key:
[1] = target: T1, Gonadotropin-releasing hormone receptor (Homo sapiens, UniProt P30968); test: Displacement of [125I]D-Trp6-GnRH from human recombinant GNRH receptor by scintillation counting
T1 sequence (P30968 whole entry): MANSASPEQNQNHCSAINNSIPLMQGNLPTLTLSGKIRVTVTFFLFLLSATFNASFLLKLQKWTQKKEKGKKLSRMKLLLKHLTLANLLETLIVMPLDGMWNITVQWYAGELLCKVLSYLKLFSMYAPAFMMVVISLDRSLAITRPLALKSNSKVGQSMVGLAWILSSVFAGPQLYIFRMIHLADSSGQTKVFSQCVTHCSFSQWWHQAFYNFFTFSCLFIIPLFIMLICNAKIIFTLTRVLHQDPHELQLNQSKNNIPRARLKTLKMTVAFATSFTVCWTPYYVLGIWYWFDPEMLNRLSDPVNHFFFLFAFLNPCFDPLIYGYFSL

[2] = target: T2, Gonadotropin-releasing hormone receptor (Homo sapiens) (UniProt P30968); test: Displacement of [125I]D-Trp6-GnRH from human recombinant GNRH receptor at 500 nM by scintillation counting
T2 sequence (whole entry): T1 sequence (P30968 whole entry)

[3] = Solubility at pH 7.4; type: physicochemical; conditions: buffer
[4] = target: T3, Gonadotropin-releasing hormone receptor (Rattus norvegicus, UniProt P30969); test: Antagonist activity at GNRH receptor in rat pituitary cells assessed as inhibition of D-Trp6-GnRH-induced LH accumulation after 3 hrs by RIA; type: functional, cell-based, Pituitary gland cell
T3 sequence (P30969 whole entry): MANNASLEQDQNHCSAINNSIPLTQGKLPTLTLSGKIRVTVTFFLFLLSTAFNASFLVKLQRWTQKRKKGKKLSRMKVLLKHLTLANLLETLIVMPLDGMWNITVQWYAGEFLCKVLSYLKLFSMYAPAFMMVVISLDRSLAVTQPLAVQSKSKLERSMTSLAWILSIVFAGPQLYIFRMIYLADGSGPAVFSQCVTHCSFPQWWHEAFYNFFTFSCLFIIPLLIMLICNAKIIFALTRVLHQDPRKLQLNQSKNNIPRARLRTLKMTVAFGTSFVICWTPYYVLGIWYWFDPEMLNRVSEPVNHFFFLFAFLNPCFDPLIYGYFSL

[5] = Permeability by PAMPA method; type: ADME; conditions: read-out: permeability
[6] = target: T1, Gonadotropin-releasing hormone receptor; test: Antagonist activity at human recombinant GNRH receptor assessed as inhibition of D-Trp6-GNRH-induced IP accumulation after 1 hr by rapid filtration assay; type: functional
[7] = Cmax in orchidectomized Sprague-Dawley rat at 1 mg/kg, iv; type: ADME, organism-based; parameters: dose 1 mg/kg, route intravenous; conditions: male, in vivo
[8] = Cmax in orchidectomized Sprague-Dawley rat at 30 mg/kg, po; type: ADME, organism-based; parameters: dose 30 mg/kg, route oral; conditions: male, in vivo
[9] = Half life in orchidectomized Sprague-Dawley rat at 1 mg/kg, iv; type: ADME, organism-based; parameters: dose 1 mg/kg, route intravenous; conditions: male, in vivo
[10] = Half life in orchidectomized Sprague-Dawley rat at 30 mg/kg, po; type: ADME, organism-based; parameters: dose 30 mg/kg, route oral; conditions: male, in vivo
[11] = AUC (0 to infinity) in orchidectomized Sprague-Dawley rat at 1 mg/kg, iv; type: ADME, organism-based; parameters: time infinity, dose 1 mg/kg, route intravenous; conditions: male, plasma
[12] = AUC (0 to infinity) in orchidectomized Sprague-Dawley rat at 30 mg/kg, po; type: ADME, organism-based; parameters: time infinity, dose 30 mg/kg, route oral; conditions: male, plasma
[13] = target: T3, Gonadotropin-releasing hormone receptor; test: Displacement of [125I]D-Trp6-GnRH from rat recombinant GNRH receptor by scintillation counting
[14] = Volume of distribution at steady state in orchidectomized Sprague-Dawley rat at 3 mg/kg, iv; type: ADME, organism-based; parameters: dose 3 mg/kg, route intravenous; conditions: male, in vivo, read-out: Vdss
[15] = Oral bioavailability in orchidectomized Sprague-Dawley rat at 30 mg/kg; type: ADME, organism-based; conditions: male, in vivo
[16] = Half life in rat liver microsomes; type: ADME, Microsome
Cytochrome P450 2C9 = Cytochrome P450 2C9 (Homo sapiens, UniProt P11712); test: Inhibition of CYP2C9; type: ADME
Cytochrome P450 2D6 = Cytochrome P450 2D6 (Homo sapiens, UniProt P10635); test: Inhibition of CYP2D6; type: ADME
Cytochrome P450 3A4 = Cytochrome P450 3A4 (Homo sapiens, UniProt P08684); test: Inhibition of CYP3A4; type: ADME
[17] = Cmax in orchidectomized Sprague-Dawley rat at 3 mg/kg, iv; type: ADME, organism-based; parameters: dose 3 mg/kg, route intravenous; conditions: male, in vivo
[18] = Tmax in orchidectomized Sprague-Dawley rat at 30 mg/kg, po; type: ADME, organism-based; parameters: dose 30 mg/kg, route oral; conditions: male, in vivo
[19] = Half life in orchidectomized Sprague-Dawley rat at 3 mg/kg, iv; type: ADME, organism-based; parameters: dose 3 mg/kg, route intravenous; conditions: male, in vivo
[20] = AUC (0 to infinity) in orchidectomized Sprague-Dawley rat at 3 mg/kg, iv; type: ADME, organism-based; parameters: time infinity, dose 3 mg/kg, route intravenous; conditions: male, plasma
[21] = Clearance in orchidectomized Sprague-Dawley rat at 3 mg/kg, iv; type: ADME, organism-based; parameters: dose 3 mg/kg, route intravenous; conditions: male, in vivo

Cytochrome P450 3A4, sequence (P08684 whole entry): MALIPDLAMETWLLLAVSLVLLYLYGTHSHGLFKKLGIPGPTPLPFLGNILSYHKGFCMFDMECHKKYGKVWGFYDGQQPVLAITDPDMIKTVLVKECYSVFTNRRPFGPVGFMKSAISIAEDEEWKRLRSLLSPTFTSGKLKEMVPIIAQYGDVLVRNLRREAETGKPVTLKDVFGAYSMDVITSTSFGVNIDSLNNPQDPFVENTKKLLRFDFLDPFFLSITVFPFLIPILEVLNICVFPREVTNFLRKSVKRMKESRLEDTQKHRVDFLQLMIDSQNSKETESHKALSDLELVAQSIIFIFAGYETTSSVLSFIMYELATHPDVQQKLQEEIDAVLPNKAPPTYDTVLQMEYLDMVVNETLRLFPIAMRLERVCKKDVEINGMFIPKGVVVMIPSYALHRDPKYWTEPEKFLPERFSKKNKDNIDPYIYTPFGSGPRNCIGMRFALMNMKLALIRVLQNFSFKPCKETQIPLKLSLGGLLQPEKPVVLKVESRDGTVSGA
Cytochrome P450 2C9, sequence (P11712 whole entry): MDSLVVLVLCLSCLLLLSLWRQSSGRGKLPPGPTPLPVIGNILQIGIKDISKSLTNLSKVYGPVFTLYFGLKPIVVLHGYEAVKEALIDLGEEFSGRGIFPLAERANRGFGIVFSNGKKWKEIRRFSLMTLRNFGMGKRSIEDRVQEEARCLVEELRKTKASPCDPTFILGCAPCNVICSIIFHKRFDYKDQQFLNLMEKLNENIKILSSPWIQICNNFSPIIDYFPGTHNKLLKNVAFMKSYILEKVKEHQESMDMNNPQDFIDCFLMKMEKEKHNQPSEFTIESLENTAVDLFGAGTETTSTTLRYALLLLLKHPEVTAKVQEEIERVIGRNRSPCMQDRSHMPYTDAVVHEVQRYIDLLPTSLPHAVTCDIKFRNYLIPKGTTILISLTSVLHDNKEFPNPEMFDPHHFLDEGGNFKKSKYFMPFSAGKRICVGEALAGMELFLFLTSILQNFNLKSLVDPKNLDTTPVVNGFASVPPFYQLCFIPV
Cytochrome P450 2D6, sequence (P10635 whole entry): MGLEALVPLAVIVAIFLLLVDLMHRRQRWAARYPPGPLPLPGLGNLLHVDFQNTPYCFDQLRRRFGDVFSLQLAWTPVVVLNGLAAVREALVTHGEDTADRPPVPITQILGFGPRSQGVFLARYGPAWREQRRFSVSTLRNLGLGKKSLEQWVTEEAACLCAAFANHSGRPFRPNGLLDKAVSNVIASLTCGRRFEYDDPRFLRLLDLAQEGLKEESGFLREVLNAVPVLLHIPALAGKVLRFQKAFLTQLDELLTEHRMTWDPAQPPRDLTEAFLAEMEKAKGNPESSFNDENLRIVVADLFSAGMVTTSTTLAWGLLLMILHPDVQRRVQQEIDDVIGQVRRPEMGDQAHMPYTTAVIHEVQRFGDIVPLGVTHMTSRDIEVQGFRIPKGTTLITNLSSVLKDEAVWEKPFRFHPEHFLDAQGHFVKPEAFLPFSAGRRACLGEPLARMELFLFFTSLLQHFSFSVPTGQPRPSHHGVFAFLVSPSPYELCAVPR

Compound | IC50 [1] [nM] | solubility [3] [µg/mL] | IC50 [4] [nM] | IC50 [6] [nM] | IC50 [13] [nM] | further results
CCc1nc(CN2CCN(c3cccc4nc(-c5ccc(C(C)(C)C)cc5)sc34)CC2)c(C)[nH]1 | > 10000 |  |  |  |  | 
CCc1nc(CN2CCN(c3ccnc4[nH]c(-c5ccc(C(C)(C)C)cc5)nc34)CC2)c(C)[nH]1 |  |  |  |  |  | inhibition [2]: 32%
CCc1nc(CN2CCN(c3cccc4nc(-c5ccc(C(C)(C)C)cc5)cn34)CC2)c(C)[nH]1 | > 10000 |  |  |  |  | 
CC(C)(C)c1ccc(-c2cn3cccc(N4CCN(Cc5ccc6nccnc6c5)CC4)c3n2)cc1 | 47 |  | 3400 | 90 | 81 | 
CCc1nc(CN2CCN(c3cncc4[nH]c(-c5ccc(C(C)(C)C)cc5)nc34)CC2)c(C)[nH]1 | 58 |  |  |  | 290 | 
CCc1nc(CN2CCN(c3cccc4oc(-c5ccc(C(C)(C)C)cc5)nc34)CC2)c(C)[nH]1 |  |  |  |  |  | inhibition [2]: 61%
CC(C)(C)c1ccc(-c2cn3cccc(N4CCN(Cc5c[nH]c(=O)[nH]c5=O)CC4)c3n2)cc1 | 4.3 |  | 4400 | 20 | 95 | 
CCn1cc(CN2CCN(c3cccn4cc(-c5ccc(C(C)(C)C)cc5)nc34)CC2)c(=O)[nH]c1=O | 2.3 | 6 (≈ 12.3 µM) | 260 | 5 | 5.7 | half-life [16]: 6 min; Papp [5]: 1.2 ×10⁻⁶ cm/s; inhibition (INH) (Cytochrome P450 2C9): 0%; inhibition (INH) (Cytochrome P450 2D6): 0%; inhibition (INH) (Cytochrome P450 3A4): 54%
CCc1nc(CN2CCN(c3cccc4sc(-c5ccc(C(C)(C)C)cc5)nc34)CC2)c(C)[nH]1 |  |  |  |  |  | inhibition [2]: 70%

Further lines, with some results ahead:

IC50 [1] [nM] | solubility [3] [µg/mL] | IC50 [4] [nM] | IC50 [6] [nM] | IC50 [13] [nM] | Compound | further results
> 10000 |  |  |  |  | CCc1nc(CN2CCN(c3cccc4nc(-c5ccc(C(C)(C)C)cc5)oc34)CC2)c(C)[nH]1 | 
5.8 | 3 (≈ 6.57 µM) | 200 | 15 |  | CCn1cnc(CN2CCN(c3cccc4[nH]c(-c5ccc(C(C)(C)C)cc5)nc34)CC2)c1C | Papp [5]: 2.7 ×10⁻⁶ cm/s; Cmax [7]: 458 ng/mL; Cmax [8]: 533 ng/mL; half-life [9]: 24 min; half-life [10]: 132 min; AUC(0-inf) [11]: 124 ng·h/mL; AUC(0-inf) [12]: 3440 ng·h/mL
 |  | 360 |  | 72 | CC(C)(C)c1ccc(-c2nc3c(N4CCN(Cc5ccc6nccnc6c5)CC4)cccc3[nH]2)cc1 | 
6.7 | 9 (≈ 19.7 µM) | 420 | 41 | 12 | CCn1cnc(CN2CCN(c3cccn4cc(-c5ccc(C(C)(C)C)cc5)nc34)CC2)c1C | Vd [14]: 3.5 L/kg; bioavailability [15]: 28%; half-life [16]: 11 min; Papp [5]: 1.1 ×10⁻⁶ cm/s; inhibition (INH) (Cytochrome P450 2C9): 10%; inhibition (INH) (Cytochrome P450 2D6): 9%; inhibition (INH) (Cytochrome P450 3A4): 54%; Cmax [17]: 1760 ng/mL; Tmax [18]: 48 min; Cmax [8]: 788 ng/mL; half-life [19]: 84 min; half-life [10]: 66 min; AUC(0-inf) [20]: 685 ng·h/mL; AUC(0-inf) [12]: 1950 ng·h/mL; clearance [21]: 75.1 mL/min/kg
9.8 | 3 (≈ 6.57 µM) | 920 | 60 | 37 | CCc1nc(CN2CCN(c3cccn4cc(-c5ccc(C(C)(C)C)cc5)nc34)CC2)c(C)[nH]1 | half-life [16]: 21 min; Papp [5]: 0.2 ×10⁻⁶ cm/s; inhibition (INH) (Cytochrome P450 2C9): 6%; inhibition (INH) (Cytochrome P450 2D6): 8%; inhibition (INH) (Cytochrome P450 3A4): 78%
10 | 20 (≈ 43.8 µM) | 160 | 18 | 34 | CCc1nc(C)c(CN2CCN(c3cccc4[nH]c(-c5ccc(C(C)(C)C)cc5)nc34)CC2)[nH]1 | 
44 |  | 1500 | 39 | 29 | CC(C)(C)c1ccc(-c2cn3cccc(N4CCN(Cc5cnc6ccccc6n5)CC4)c3n2)cc1 | 
